ChEMBL document CHEMBL4680245, “Design, synthesis and biological evaluation of tetrahydroquinoline-based reversible LSD1 inhibitors” (Eur J Med Chem, 2020)
The source made the active and inactive calls. No cut-off for these calls is given here.

Legend:
[1] = target: T1, Lysine-specific histone demethylase 1A (Homo sapiens, UniProt O60341)
Description: Inhibition of human recombinant LSD1 using fluorogenic ADHP based substrate preincubated for 30 mins followed by substrate addition measured after 10 mins by horseradish peroxidase coupled fluorescence assay

[2] = target: T1, Lysine-specific histone demethylase 1A; assay: Inhibition of LSD1 (unknown origin) by TR-FRET assay
[3] = Intrinsic clearance in human microsomes preincubated for 10 mins followed by NADPH regenerating system addition and measured up to 60 mins by LC-MS/MS analysis; format: ADME, Microsome; conditions: time 10-70 min
PC-3 = assay: cells; conditions: Homo sapiens, PC-3, 72 h
Description: Antiproliferative activity against human PC-3 cells incubated for 72 hrs by CCK8 assay

MGC-803 [4] = assay: Cell cycle arrest in human MGC-803 cells assessed as increase in S phase accumulation at 4 uM after 72 hrs by propidium iodide staining based flow cytometry; format: functional
[5] = Half life in human liver microsomes preincubated for 10 mins followed by NADPH regenerating system addition and measured up to 60 mins by LC-MS/MS analysis; format: ADME, Microsome; conditions: time 10-70 min
[6] = Stability in human liver microsomes assessed as parent compound remaining preincubated for 10 mins followed by NADPH regenerating system addition and measured up to 60 mins by LC-MS/MS analysis; format: ADME, Microsome; conditions: time 10-70 min, read-out: Stabilty
[7] = target: T1, Lysine-specific histone demethylase 1A; assay: Inhibition of LSD1 in human MGC-803 cells assessed as increase in H3K9me1 accumulation up to 4 uM measured after 72 hrs by Western blot analysis; format: cell-based; conditions: dose microM <=4, time 72.0 hrs
NB-4 = assay: cells; conditions: Homo sapiens, NB-4, 72 h
Description: Antiproliferative activity against human NB-4 cells incubated for 72 hrs by CCK8 assay

[8] = target: T1, Lysine-specific histone demethylase 1A; assay: Non-competitive inhibition of recombinant N-terminal FLAG-tagged human LSD1 expressed in baculovirus infected Sf9 insect cells up to 0.6 uM using varying levels of H3K4me2 as substrate measured after 45 mins by Lineweaver-burk plot analysis; conditions: dose microM <=0.6, time 45.0 min
MCF7 = assay: cells; conditions: Homo sapiens, MCF7, 72 h
Description: Antiproliferative activity against human MCF7 cells incubated for 72 hrs by CCK8 assay

THP-1 = assay: cells; conditions: Homo sapiens, THP-1, 72 h
Description: Antiproliferative activity against human THP-1 cells incubated for 72 hrs by CCK8 assay

A549 = assay: cells; conditions: Homo sapiens, A549, 72 h
Description: Antiproliferative activity against human A549 cells incubated for 72 hrs by CCK8 assay

[9] = target: T1, Lysine-specific histone demethylase 1A; assay: Inhibition of LSD1 in human MGC-803 cells assessed as increase in H3K9me2 accumulation up to 4 uM measured after 72 hrs by Western blot analysis; format: cell-based; conditions: dose microM <=4, time 72.0 hrs
MGC-803 [10] = assay: Induction of apoptosis in human MGC-803 cells after 72 hrs by Annexin V-FITC/propidium iodide staining based flow cytometry; format: functional, cell-based
[11] = target: T1, Lysine-specific histone demethylase 1A; assay: Inhibition of LSD1 in human MGC-803 cells assessed as increase in H3K4me2 accumulation measured after 72 hrs by Western blot analysis; format: cell-based
MGC-803 [12] = assay: Cell cycle arrest in human MGC-803 cells assessed as decrease in G2/M phase accumulation at 4 uM after 72 hrs by propidium iodide staining based flow cytometry; format: functional
[13] = target: T2, Amine oxidase [flavin-containing] A (Homo sapiens, UniProt P21397); assay: Inhibition of recombinant N-terminal FLAG-tagged human MAOA expressed in baculovirus infected Sf9 insect cells using luminogenic MAO substrate measured after 1 hr by MAO-glo assay
T2 sequence (P21397 whole entry): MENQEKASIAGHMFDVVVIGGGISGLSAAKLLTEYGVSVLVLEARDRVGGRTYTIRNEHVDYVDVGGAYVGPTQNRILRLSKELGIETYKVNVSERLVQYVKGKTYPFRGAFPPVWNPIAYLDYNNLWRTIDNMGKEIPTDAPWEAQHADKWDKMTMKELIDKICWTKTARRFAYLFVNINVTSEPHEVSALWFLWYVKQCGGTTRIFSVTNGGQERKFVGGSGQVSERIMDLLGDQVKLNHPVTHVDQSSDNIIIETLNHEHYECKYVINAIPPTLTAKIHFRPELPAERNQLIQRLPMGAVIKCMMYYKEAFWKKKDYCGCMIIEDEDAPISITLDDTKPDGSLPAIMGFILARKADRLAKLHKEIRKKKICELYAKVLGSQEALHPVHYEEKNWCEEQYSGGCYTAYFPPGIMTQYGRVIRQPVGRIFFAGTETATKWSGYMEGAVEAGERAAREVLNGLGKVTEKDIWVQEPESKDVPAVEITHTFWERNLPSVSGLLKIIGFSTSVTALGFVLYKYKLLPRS

[14] = Stability in human liver microsomes assessed as parent compound remaining measured 60 mins after mins by LC-MS/MS analysis; format: ADME, Microsome
MGC-803 [15] = assay: Induction of apoptosis in human MGC-803 cells assessed as apoptotic rate at 4 uM after 72 hrs by Annexin V-FITC/propidium iodide staining based flow cytometry relative to control; format: functional
[16] = target: T3, Amine oxidase [flavin-containing] B (Homo sapiens, UniProt P27338); assay: Inhibition of recombinant N-terminal FLAG-tagged human MAOB expressed in baculovirus infected Sf9 insect cells using luminogenic MAO substrate measured after 1 hr by MAO-glo assay
T3 sequence (P27338 whole entry): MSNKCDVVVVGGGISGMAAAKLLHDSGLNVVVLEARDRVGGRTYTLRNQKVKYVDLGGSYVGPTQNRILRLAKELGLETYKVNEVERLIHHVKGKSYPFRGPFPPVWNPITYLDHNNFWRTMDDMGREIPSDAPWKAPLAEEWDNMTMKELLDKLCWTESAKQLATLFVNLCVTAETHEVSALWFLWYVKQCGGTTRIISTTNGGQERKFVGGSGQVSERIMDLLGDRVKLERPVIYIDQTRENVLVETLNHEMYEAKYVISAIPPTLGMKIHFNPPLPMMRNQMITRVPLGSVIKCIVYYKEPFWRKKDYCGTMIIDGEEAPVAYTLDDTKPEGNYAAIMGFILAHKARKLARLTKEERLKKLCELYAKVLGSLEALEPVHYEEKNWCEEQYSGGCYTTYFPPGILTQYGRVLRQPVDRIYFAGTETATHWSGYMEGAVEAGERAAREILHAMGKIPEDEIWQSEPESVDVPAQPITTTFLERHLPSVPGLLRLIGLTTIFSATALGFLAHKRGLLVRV

[17] = target: T1, Lysine-specific histone demethylase 1A; assay: Reversible inhibition of recombinant N-terminal FLAG-tagged human LSD1 expressed in baculovirus infected Sf9 insect cells at 10 times IC50 using H3K4me2 as substrate preincubated for 30 mins followed by 100 fold dilution and subsequent substrate addition and measured after 30 mins by jump dilution method; conditions: time 60.0 min
MGC-803 [18] = assay: cells; conditions: Homo sapiens, MGC-803, 72 h
Description: Antiproliferative activity against human MGC-803 cells incubated for 72 hrs by CCK8 assay

MGC-803 [19] = assay: Antitumor activity against human MGC-803 cells xenografted in Balb/c nude mouse assessed as reduction in tumor volume at 100 mg/kg, po administered once daily via gavage for 21 days measured post last dose relative to control; format: functional; design: scale not given: the % may be the effect or the level left; conditions: time 21 day
CYP2D6 = CYP2D6 (Homo sapiens, UniProt P10635); assay: Inhibition of CYP2D6 in human liver microsomes at 10 uM using CYP substrate preincubated for 10 mins followed by NADPH generating system addition and measured after 10 mins by LC-MS/MS analysis relative to control; format: ADME; conditions: time 20 min
[20] = Toxicity in human MGC-803 cells xenografted Balb/c nude mouse assessed as body weight loss at 50 to 100 mg/kg, po administered once daily via gavage for 21 days measured at 3 days interval during compound dosing; format: organism-based; conditions: in vivo, 504 h, dose 50-100 mg/kg, time 21 day
CYP2C19 = CYP2C19 (Homo sapiens, UniProt P33261); assay: Inhibition of CYP2C19 in human liver microsomes at 10 uM using CYP substrate preincubated for 10 mins followed by NADPH generating system addition and measured after 10 mins by LC-MS/MS analysis relative to control; format: ADME; conditions: time 20 min
CYP3A4 = CYP3A4 (Homo sapiens, UniProt P08684); assay: Inhibition of CYP3A4 in human liver microsomes at 10 uM using CYP substrate preincubated for 10 mins followed by NADPH generating system addition and measured after 10 mins by LC-MS/MS analysis relative to control; format: ADME; conditions: time 20 min
CYP2C9 = CYP2C9 (Homo sapiens, UniProt P11712); assay: Inhibition of CYP2C9 in human liver microsomes at 10 uM using CYP substrate preincubated for 10 mins followed by NADPH generating system addition and measured after 10 mins by LC-MS/MS analysis relative to control; format: ADME; conditions: time 20 min
CYP1A2 = target: T4, CYP1A2 (Homo sapiens, UniProt P05177); assay: Inhibition of CYP1A2 in human liver microsomes at 10 uM using CYP substrate preincubated for 10 mins followed by NADPH generating system addition and measured after 10 mins by LC-MS/MS analysis relative to control; format: ADME; conditions: time 20 min
T4 sequence (P05177 whole entry): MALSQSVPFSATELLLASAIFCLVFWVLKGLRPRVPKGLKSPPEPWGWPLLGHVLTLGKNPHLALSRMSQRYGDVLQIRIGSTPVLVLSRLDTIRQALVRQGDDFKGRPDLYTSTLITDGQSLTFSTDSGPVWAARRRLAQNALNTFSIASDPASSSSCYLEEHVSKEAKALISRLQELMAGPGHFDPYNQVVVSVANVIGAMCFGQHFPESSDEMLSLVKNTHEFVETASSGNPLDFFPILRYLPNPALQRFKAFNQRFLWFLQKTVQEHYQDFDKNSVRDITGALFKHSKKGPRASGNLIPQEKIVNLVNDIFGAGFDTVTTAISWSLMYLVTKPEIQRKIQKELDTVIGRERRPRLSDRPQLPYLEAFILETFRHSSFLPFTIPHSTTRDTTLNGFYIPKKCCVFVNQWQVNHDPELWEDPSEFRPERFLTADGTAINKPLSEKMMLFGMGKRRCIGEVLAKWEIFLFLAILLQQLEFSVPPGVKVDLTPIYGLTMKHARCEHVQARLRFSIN

MGC-803 [21] = assay: Antitumor activity against human MGC-803 cells xenografted in Balb/c nude mouse assessed as reduction in tumor weight at 100 mg/kg, po administered once daily via gavage for 21 days measured post last dose relative to control; format: functional; design: scale not given: the % may be the effect or the level left; conditions: time 21 day

CYP2D6, sequence (P10635 whole entry): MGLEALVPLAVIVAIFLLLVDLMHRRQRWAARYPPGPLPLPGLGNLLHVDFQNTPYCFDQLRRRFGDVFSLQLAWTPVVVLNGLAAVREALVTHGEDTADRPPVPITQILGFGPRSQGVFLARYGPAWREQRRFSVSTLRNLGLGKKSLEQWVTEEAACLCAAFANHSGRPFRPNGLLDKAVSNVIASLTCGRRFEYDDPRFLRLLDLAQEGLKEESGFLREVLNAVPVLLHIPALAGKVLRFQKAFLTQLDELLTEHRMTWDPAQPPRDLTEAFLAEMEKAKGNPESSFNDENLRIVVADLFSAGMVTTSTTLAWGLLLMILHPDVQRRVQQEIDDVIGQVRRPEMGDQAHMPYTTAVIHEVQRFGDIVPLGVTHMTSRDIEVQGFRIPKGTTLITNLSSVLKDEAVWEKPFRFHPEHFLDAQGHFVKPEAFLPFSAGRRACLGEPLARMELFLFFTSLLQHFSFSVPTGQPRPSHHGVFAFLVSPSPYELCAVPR
CYP3A4, sequence (P08684 whole entry): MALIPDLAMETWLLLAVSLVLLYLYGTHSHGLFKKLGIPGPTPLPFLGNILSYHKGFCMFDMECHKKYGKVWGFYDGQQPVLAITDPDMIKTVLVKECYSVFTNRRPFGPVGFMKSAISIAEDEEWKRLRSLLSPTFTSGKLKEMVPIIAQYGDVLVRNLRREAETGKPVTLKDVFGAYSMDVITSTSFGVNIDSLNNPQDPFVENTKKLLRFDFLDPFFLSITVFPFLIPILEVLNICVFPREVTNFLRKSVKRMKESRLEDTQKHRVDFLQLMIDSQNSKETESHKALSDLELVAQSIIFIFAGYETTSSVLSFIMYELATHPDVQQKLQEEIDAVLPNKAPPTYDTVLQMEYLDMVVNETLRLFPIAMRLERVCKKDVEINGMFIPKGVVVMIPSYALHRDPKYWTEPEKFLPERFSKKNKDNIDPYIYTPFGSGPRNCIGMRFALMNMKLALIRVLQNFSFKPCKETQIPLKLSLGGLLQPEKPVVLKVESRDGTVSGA
CYP2C19, sequence (P33261 whole entry): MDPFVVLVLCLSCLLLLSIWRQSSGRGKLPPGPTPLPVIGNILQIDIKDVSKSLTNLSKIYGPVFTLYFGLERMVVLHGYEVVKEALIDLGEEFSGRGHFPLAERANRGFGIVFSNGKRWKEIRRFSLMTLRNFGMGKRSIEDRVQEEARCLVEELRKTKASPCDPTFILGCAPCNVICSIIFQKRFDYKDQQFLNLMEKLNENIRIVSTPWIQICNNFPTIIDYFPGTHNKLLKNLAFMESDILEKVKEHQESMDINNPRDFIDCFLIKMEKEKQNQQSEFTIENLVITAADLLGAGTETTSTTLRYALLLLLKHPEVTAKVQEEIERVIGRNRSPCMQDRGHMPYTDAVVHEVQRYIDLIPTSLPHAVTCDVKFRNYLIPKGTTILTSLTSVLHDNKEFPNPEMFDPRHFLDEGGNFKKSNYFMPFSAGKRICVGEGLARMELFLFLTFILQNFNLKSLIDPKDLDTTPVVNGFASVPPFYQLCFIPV
CYP2C9, sequence (P11712 whole entry): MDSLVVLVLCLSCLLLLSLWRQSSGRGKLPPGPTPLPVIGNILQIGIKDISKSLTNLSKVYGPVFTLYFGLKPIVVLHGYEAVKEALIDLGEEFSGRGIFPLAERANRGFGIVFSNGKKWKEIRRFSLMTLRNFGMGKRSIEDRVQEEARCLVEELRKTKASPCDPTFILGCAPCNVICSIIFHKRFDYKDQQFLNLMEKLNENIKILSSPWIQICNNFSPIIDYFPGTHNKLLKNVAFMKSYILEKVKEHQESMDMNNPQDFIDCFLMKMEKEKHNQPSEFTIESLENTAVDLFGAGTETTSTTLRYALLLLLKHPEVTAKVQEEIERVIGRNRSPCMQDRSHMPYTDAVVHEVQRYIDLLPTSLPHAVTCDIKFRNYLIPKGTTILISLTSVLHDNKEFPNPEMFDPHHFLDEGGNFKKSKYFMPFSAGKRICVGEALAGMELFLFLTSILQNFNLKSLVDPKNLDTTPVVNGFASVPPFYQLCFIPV

Compound | IC50 [1] | microsomal CLint [3] | IC50 (PC-3) | Activity (MGC-803 [4]) | half-life [5] | remaining at 1 h [6] | IC50 (NB-4) | IC50 (MCF7) | IC50 (THP-1) | IC50 (A549) | Activity (MGC-803 [10]) | inhibition [11] | Activity (MGC-803 [12]) | IC50 [13] | Activity (MGC-803 [15]) | IC50 [16] | IC50 (MGC-803 [18]) | also measured
CCOCc1cccc(NC(=O)c2cc3sccc3n2C)c1COc1ccc(OC[C@H]2CCNC2)cc1 | 0.1 nM |  |  |  |  |  |  |  |  |  |  |  |  |  |  |  |  | IC50 [2]: 0.0078 µM
Cn1c(C(=O)Nc2cccc3c2N(Cc2ccc(OC4CCNCC4)cc2)CCC3)cc2ccccc21 | 0.05 nM | 50.1 µL/min/mg | 2.86 µM | Active | 27.7 min | 20.3% | 9.53 µM | 5.83 µM | 9.68 µM | 5.97 µM | Dose-dependent effect | Dose-dependent effect | Active | > 50 µM | 22.79% | > 50 µM | 1.13 µM | inhibition [7]: Active; inhibition [8]: Active; inhibition [9]: Active; remaining at 1 h ([14]; liver microsomes, read-out: Stabilty): 101%; inhibition [17]: Active
Cn1c(C(=O)Nc2cccc3c2N(Cc2ccc(OC4CCNCC4)cc2)CCC3)cc2cc(F)ccc21 | 0.54 nM | 22.4 µL/min/mg | 4.29 µM | Active | 61.9 min | 57.5% | 1.13 µM | 9.49 µM | 9.63 µM | 3.01 µM | Dose-dependent effect | Dose-dependent effect | Active | > 50 µM | 24.86% | > 50 µM | 1.75 µM | Activity (MGC-803 [19]): 28.6%; inhibition at 10 min, 10 µM (CYP2D6): 6.1%; Activity [20]: Non-Toxic; inhibition at 10 min, 10 µM (CYP2C19): 16.1%; inhibition at 10 min, 10 µM (CYP3A4): 40.1%; inhibition at 10 min, 10 µM (CYP2C9): 0%; Stabilty ([14]; microsomes, 1 h): 122.6%; inhibition at 10 min, 10 µM (CYP1A2): 4.6%; Activity (MGC-803 [21]): 28.1%
